Assay results from paper PMC5218480 (PLoS ONE, 2017).

Test system: MV-4-11 cells
Experiment: Gene expression microarray analysis (Affymetrix PrimeView) and GSEA
Type: cell-based, human
Parameters: RFU PODN (11730768_x_at) / Fold change /veh PODN (11730768_x_at) / RFU LINC00158 (11744669_a_at) / Fold change /veh LINC00158 (11744669_a_at) / RFU DUSP10 (11751237_a_at) / Fold change /veh DUSP10 (11751237_a_at) / RFU ID3 (11757404_x_at) / Fold change /veh ID3 (11757404_x_at) / RFU PLEKHG5 (11737974_s_at) / Fold change /veh PLEKHG5 (11737974_s_at) / RFU LRRC4B (11730491_at) / Fold change /veh LRRC4B (11730491_at) / RFU GIMAP4 (11747438_a_at) / Fold change /veh GIMAP4 (11747438_a_at) / RFU KRT8 (11758183_x_at) / Fold change /veh KRT8 (11758183_x_at) / RFU CNN1 (11734310_a_at) / Fold change /veh CNN1 (11734310_a_at) / RFU VPS37D (11726825_at) / Fold change /veh VPS37D (11726825_at) / RFU C10orf10 (11716522_x_at) / Fold change /veh C10orf10 (11716522_x_at) / RFU KIR2DL2 /// KIR2DL4 /// KIR2DL5A /// KIR2DL5B /// KIR2DS1 /// KIR2DS2 /// KIR2DS3 /// KIR2DS4 /// KIR3DL3 /// KIR3DL3 /// KIR3DS1 (11738374_at) / Fold change /veh KIR2DL2 /// KIR2DL4 /// KIR2DL5A /// KIR2DL5B /// KIR2DS1 /// KIR2DS2 /// KIR2DS3 /// KIR2DS4 /// KIR3DL3 /// KIR3DL3 /// KIR3DS1 (11738374_at) / RFU C1QL1 (11718748_at) / Fold change /veh C1QL1 (11718748_at) / RFU TMPRSS4 (11747572_a_at) / Fold change /veh TMPRSS4 (11747572_a_at) / RFU HAMP (11756126_x_at) / Fold change /veh HAMP (11756126_x_at) / RFU RNFT2 (11725882_a_at) / Fold change /veh RNFT2 (11725882_a_at) / RFU NR4A2 (11747474_a_at) / Fold change /veh NR4A2 (11747474_a_at) / RFU ABCC12 (11746883_a_at) / Fold change /veh ABCC12 (11746883_a_at) / RFU TMEM136 (11760407_x_at) / Fold change /veh TMEM136 (11760407_x_at) / RFU CLDN22 /// WWC2 (11732394_at) / Fold change /veh CLDN22 /// WWC2 (11732394_at) / RFU HLA-DPB1 (11760878_x_at) / Fold change /veh HLA-DPB1 (11760878_x_at) / RFU SPINT1 (11716480_a_at) / Fold change /veh SPINT1 (11716480_a_at) / RFU GAP43 (11754022_s_at) / Fold change /veh GAP43 (11754022_s_at) / RFU A4GNT (11735810_at) / Fold change /veh A4GNT (11735810_at) / RFU PRB3 (11715151_x_at) / Fold change /veh PRB3 (11715151_x_at) / RFU TUBB4B (11761932_at) / Fold change /veh TUBB4B (11761932_at) / RFU CAPN14 (11732068_a_at) / Fold change /veh CAPN14 (11732068_a_at) / RFU TMCC2 (11721928_a_at) / Fold change /veh TMCC2 (11721928_a_at) / RFU IRGQ (11745062_a_at) / Fold change /veh IRGQ (11745062_a_at) / RFU FAM174B (11720279_a_at) / Fold change /veh FAM174B (11720279_a_at) / RFU TMPRSS4 (11748680_a_at) / Fold change /veh TMPRSS4 (11748680_a_at) / RFU FAM212B (11763350_a_at) / Fold change /veh FAM212B (11763350_a_at) / RFU PLEKHG5 (11743358_a_at) / Fold change /veh PLEKHG5 (11743358_a_at) / RFU ZSCAN30 (11745921_a_at) / Fold change /veh ZSCAN30 (11745921_a_at) / RFU CMKLR1 (11741424_a_at) / Fold change /veh CMKLR1 (11741424_a_at) / RFU LOC101060620 /// MAPK8IP1 (11723275_at) / Fold change /veh LOC101060620 /// MAPK8IP1 (11723275_at) / RFU SPTSSB (11747773_x_at) / Fold change /veh SPTSSB (11747773_x_at) / RFU PRSS12 (11739890_at) / Fold change /veh PRSS12 (11739890_at) / RFU BIN1 (11741810_x_at) / Fold change /veh BIN1 (11741810_x_at) / RFU WNT11 (11732464_a_at) / Fold change /veh WNT11 (11732464_a_at) / RFU C10orf10 (11716521_a_at) / Fold change /veh C10orf10 (11716521_a_at) / RFU C5orf56 (11738089_at) / Fold change /veh C5orf56 (11738089_at) / RFU CYB561 (11721691_x_at) / Fold change /veh CYB561 (11721691_x_at) / RFU ANKRD19P (11752326_a_at) / Fold change /veh ANKRD19P (11752326_a_at) / RFU OR2T12 /// OR2T33 /// OR2T8 (11738714_s_at) / Fold change /veh OR2T12 /// OR2T33 /// OR2T8 (11738714_s_at) / RFU VCAN (11748164_a_at) / Fold change /veh VCAN (11748164_a_at) / RFU JSRP1 (11732532_at) / Fold change /veh JSRP1 (11732532_at) / RFU KRTAP10-11 (11738290_x_at) / Fold change /veh KRTAP10-11 (11738290_x_at) / RFU MYO3A (11730013_a_at) / Fold change /veh MYO3A (11730013_a_at) / RFU EBF3 (11725865_a_at) / Fold change /veh EBF3 (11725865_a_at) / RFU CAMK2N1 (11719241_x_at) / Fold change /veh CAMK2N1 (11719241_x_at) / RFU C5orf56 (11738088_a_at) / Fold change /veh C5orf56 (11738088_a_at) / RFU OLFML3 (11715873_a_at) / Fold change /veh OLFML3 (11715873_a_at) / RFU LOC100653217 /// NTM (11731650_a_at) / Fold change /veh LOC100653217 /// NTM (11731650_a_at) / RFU MAPK11 (11762145_a_at) / Fold change /veh MAPK11 (11762145_a_at) / RFU FIZ1 (11724087_x_at) / Fold change /veh FIZ1 (11724087_x_at) / RFU OASL (11726364_x_at) / Fold change /veh OASL (11726364_x_at) / RFU SOX15 (11748057_x_at) / Fold change /veh SOX15 (11748057_x_at) / RFU CD79A (11719716_a_at) / Fold change /veh CD79A (11719716_a_at) / RFU HIST1H1D (11736915_at) / Fold change /veh HIST1H1D (11736915_at) / RFU CASKIN2 (11723855_a_at) / Fold change /veh CASKIN2 (11723855_a_at) / RFU LOC730098 (11760151_x_at) / Fold change /veh LOC730098 (11760151_x_at) / RFU OR4N2 (11742367_at) / Fold change /veh OR4N2 (11742367_at) / RFU PRRT2 (11749266_a_at) / Fold change /veh PRRT2 (11749266_a_at) / RFU SNX32 (11753110_a_at) / Fold change /veh SNX32 (11753110_a_at) / RFU CDHR5 (11726645_a_at) / Fold change /veh CDHR5 (11726645_a_at) / RFU RCAN1 (11760418_a_at) / Fold change /veh RCAN1 (11760418_a_at) / RFU FAM167A (11723789_a_at) / Fold change /veh FAM167A (11723789_a_at) / RFU FAM26E (11764081_at) / Fold change /veh FAM26E (11764081_at) / RFU ISYNA1 (11749810_s_at) / Fold change /veh ISYNA1 (11749810_s_at) / RFU ACY1 (11761880_at) / Fold change /veh ACY1 (11761880_at) / RFU 11764098_at / Fold change /veh 11764098_at / RFU SAMD14 (11745864_x_at) / Fold change /veh SAMD14 (11745864_x_at) / RFU NPB (11741838_a_at) / Fold change /veh NPB (11741838_a_at) / RFU TMPRSS6 (11731388_a_at) / Fold change /veh TMPRSS6 (11731388_a_at) / RFU KRTAP10-2 (11738614_at) / Fold change /veh KRTAP10-2 (11738614_at) / RFU ARHGAP8 /// PRR5-ARHGAP8 (11727945_x_at) / Fold change /veh ARHGAP8 /// PRR5-ARHGAP8 (11727945_x_at) / RFU KRTAP5-7 /// NADSYN1 (11734609_at) / Fold change /veh KRTAP5-7 /// NADSYN1 (11734609_at) / RFU RASL12 (11751679_a_at) / Fold change /veh RASL12 (11751679_a_at) / RFU CDKN2B (11736163_a_at) / Fold change /veh CDKN2B (11736163_a_at) / RFU PRF1 (11729649_at) / Fold change /veh PRF1 (11729649_at) / RFU, ZNF638 /// ZNF638-IT1 / Fold change vs veh, ZNF638 /// ZNF638-IT1 / RFU, PANK3 / Fold change vs veh, PANK3 / RFU, SH3YL1 / Fold change vs veh, SH3YL1 / RFU, ZEB2 / Fold change vs veh, ZEB2 / RFU, NRIP1 / Fold change vs veh, NRIP1 / RFU, PTTG1IP / Fold change vs veh, PTTG1IP / RFU, CAPN2 / Fold change vs veh, CAPN2 / RFU, MED14 / Fold change vs veh, MED14 / RFU, SNORA58 / Fold change vs veh, SNORA58 / RFU, C1orf63 / Fold change vs veh, C1orf63 / RFU, LRRFIP1 / Fold change vs veh, LRRFIP1 / RFU, NDUFAF7 / Fold change vs veh, NDUFAF7 / RFU, SLC12A2 / Fold change vs veh, SLC12A2 / RFU, IBTK / Fold change vs veh, IBTK / RFU, ESF1 / Fold change vs veh, ESF1 / Fold change vs veh, TMEM50B / RFU, TAOK1 / Fold change vs veh, TAOK1 / RFU, ACBD3 / Fold change vs veh, ACBD3 / RFU, TMA16 / Fold change vs veh, TMA16 / RFU, RWDD3 / Fold change vs veh, RWDD3 / RFU, BCAT1 / Fold change vs veh, BCAT1 / RFU, EDEM3 / Fold change vs veh, EDEM3 / RFU, TMEM33 / Fold change vs veh, TMEM33 / RFU, WDR75 / Fold change vs veh, WDR75 / RFU, AHCTF1 / Fold change vs veh, AHCTF1 / RFU, TFRC / Fold change vs veh, TFRC / RFU, ZDHHC17 / Fold change vs veh, ZDHHC17 / RFU, NOM1 / Fold change vs veh, NOM1 / RFU, ARL8B / Fold change vs veh, ARL8B / RFU, ZBTB11 / Fold change vs veh, ZBTB11 / RFU, TAMM41 / Fold change vs veh, TAMM41 / RFU, KIAA1704 /// LOC100996395 / Fold change vs veh, KIAA1704 /// LOC100996395 / RFU, ING1 / Fold change vs veh, ING1 / RFU, TRMT61B / Fold change vs veh, TRMT61B / RFU, FUBP3 / Fold change vs veh, FUBP3 / RFU, TP53 / Fold change vs veh, TP53 / RFU, TNKS2 / Fold change vs veh, TNKS2 / RFU, ZFP14 / Fold change vs veh, ZFP14 / RFU, ACTR2 / Fold change vs veh, ACTR2 / RFU, PPP3R1 / Fold change vs veh, PPP3R1 / RFU, PIK3R1 / Fold change vs veh, PIK3R1 / RFU, HNRNPA1 / Fold change vs veh, HNRNPA1 / RFU, RNF170 / Fold change vs veh, RNF170 / RFU, ZNF28 / Fold change vs veh, ZNF28 / RFU, RNGTT / Fold change vs veh, RNGTT / RFU, OGT / Fold change vs veh, OGT / RFU, BRD1 / Fold change vs veh, BRD1 / RFU, MARS / Fold change vs veh, MARS / RFU, ZNF655 / Fold change vs veh, ZNF655 / RFU, FAHD1 / Fold change vs veh, FAHD1 / RFU, BDP1 / Fold change vs veh, BDP1 / RFU, LRRCC1 / Fold change vs veh, LRRCC1 / RFU, ARID1A / Fold change vs veh, ARID1A / RFU, ZNF146 / Fold change vs veh, ZNF146 / RFU, ZNF330 / Fold change vs veh, ZNF330 / RFU, GPN3 / Fold change vs veh, GPN3 / RFU, C9orf123 / Fold change vs veh, C9orf123 / RFU, N4BP2L2 / Fold change vs veh, N4BP2L2 / RFU, ARFIP1 / Fold change vs veh, ARFIP1 / RFU, FAM179B / Fold change vs veh, FAM179B / RFU, BCL10 / Fold change vs veh, BCL10 / RFU, UHRF1BP1L / Fold change vs veh, UHRF1BP1L / RFU, BET1 / Fold change vs veh, BET1 / RFU, CNOT2 / Fold change vs veh, CNOT2 / RFU, ZNF268 / Fold change vs veh, ZNF268 / Fold change vs veh, ZNF507 / RFU, DGCR2 / Fold change vs veh, DGCR2 / RFU, WDSUB1 / Fold change vs veh, WDSUB1 / Fold change vs veh, HSP90B1 /// MIR3652 / RFU, ADSS / Fold change vs veh, ADSS / RFU, GK / Fold change vs veh, GK / RFU, ZNF148 / Fold change vs veh, ZNF148 / RFU, TAF9 / Fold change vs veh, TAF9 / RFU, SLC1A5 / Fold change vs veh, SLC1A5 / RFU, SLMO2 / Fold change vs veh, SLMO2 / RFU, ABCC4 / Fold change vs veh, ABCC4 / RFU, LOC101060439 /// RAP1B / Fold change vs veh, LOC101060439 /// RAP1B / RFU, RFX7 / Fold change vs veh, RFX7 / RFU, GTPBP10 / Fold change vs veh, GTPBP10 / RFU, CNEP1R1 / Fold change vs veh, CNEP1R1 / RFU, BIVM-ERCC5 /// ERCC5 / Fold change vs veh, BIVM-ERCC5 /// ERCC5 / RFU, ILF3 / Fold change vs veh, ILF3 / RFU 11762660_at / Fold change /veh 11762660_at / RFU VCAN (11757783_s_at) / Fold change /veh VCAN (11757783_s_at) / RFU DDX43 (11728927_at) / Fold change /veh DDX43 (11728927_at) / RFU KRT8 (11758188_x_at) / Fold change /veh KRT8 (11758188_x_at) / RFU NKD1 (11759106_at) / Fold change /veh NKD1 (11759106_at) / RFU SRD5A1 (11742802_a_at) / Fold change /veh SRD5A1 (11742802_a_at) / RFU TPSAB1 /// TPSB2 (11721975_s_at) / Fold change /veh TPSAB1 /// TPSB2 (11721975_s_at) / RFU GSTM3 (11746129_a_at) / Fold change /veh GSTM3 (11746129_a_at) / RFU IL23R (11737362_x_at) / Fold change /veh IL23R (11737362_x_at) / RFU TMEM51 (11727254_a_at) / Fold change /veh TMEM51 (11727254_a_at) / RFU PIWIL2 (11732686_x_at) / Fold change /veh PIWIL2 (11732686_x_at) / RFU ORM1 (11744905_x_at) / Fold change /veh ORM1 (11744905_x_at) / RFU CCDC152 (11743942_at) / Fold change /veh CCDC152 (11743942_at) / RFU ECM1 (11717891_a_at) / Fold change /veh ECM1 (11717891_a_at) / RFU IL23R (11748794_a_at) / Fold change /veh IL23R (11748794_a_at) / RFU TNFAIP8L3 (11732012_x_at) / Fold change /veh TNFAIP8L3 (11732012_x_at) / RFU MBOAT4 (11741988_at) / Fold change /veh MBOAT4 (11741988_at) / RFU 11764193_at / Fold change /veh 11764193_at / RFU TMEM53 (11763286_at) / Fold change /veh TMEM53 (11763286_at) / RFU MAGEB2 (11727129_at) / Fold change /veh MAGEB2 (11727129_at) / RFU TMEM200A (11744735_a_at) / Fold change /veh TMEM200A (11744735_a_at) / RFU CCDC152 (11751479_a_at) / Fold change /veh CCDC152 (11751479_a_at) / RFU FAM211A (11726209_a_at) / Fold change /veh FAM211A (11726209_a_at) / RFU RGS16 (11746705_a_at) / Fold change /veh RGS16 (11746705_a_at) / RFU VCAN (11755009_s_at) / Fold change /veh VCAN (11755009_s_at) / RFU RHOB (11743442_s_at) / Fold change /veh RHOB (11743442_s_at) / RFU RGS16 (11720943_a_at) / Fold change /veh RGS16 (11720943_a_at) / RFU RGS16 (11720944_at) / Fold change /veh RGS16 (11720944_at) / RFU, VPS4B / Fold change vs veh, VPS4B / RFU, CREB1 / Fold change vs veh, CREB1 / RFU, DNAJC13 / Fold change vs veh, DNAJC13 / RFU, GNAQ / Fold change vs veh, GNAQ / RFU, CDK5R1 / Fold change vs veh, CDK5R1 / RFU, ZRANB3 / Fold change vs veh, ZRANB3 / RFU, CUL4A / Fold change vs veh, CUL4A / RFU, CCNY / Fold change vs veh, CCNY / RFU, UFL1 / Fold change vs veh, UFL1 / RFU, COG3 / Fold change vs veh, COG3 / RFU, DIAPH2 / Fold change vs veh, DIAPH2 / RFU, SKA2 / Fold change vs veh, SKA2 / RFU, AFF3 / Fold change vs veh, AFF3 / RFU, LMF1 / Fold change vs veh, LMF1 / RFU, IPO11 / Fold change vs veh, IPO11 / RFU, DFFB / Fold change vs veh, DFFB / RFU, FOXP1 / Fold change vs veh, FOXP1 / RFU, CARD8 / Fold change vs veh, CARD8 / RFU, STRN3 / Fold change vs veh, STRN3 / RFU, ADK / Fold change vs veh, ADK / RFU, RASSF2 / Fold change vs veh, RASSF2 / RFU, WIPF1 / Fold change vs veh, WIPF1 / RFU, LARP1B / Fold change vs veh, LARP1B / RFU, RASA1 / Fold change vs veh, RASA1 / RFU, RB1 / Fold change vs veh, RB1 / RFU, PPFIA1 / Fold change vs veh, PPFIA1 / RFU, MAT2A / Fold change vs veh, MAT2A / RFU, CCT5 / Fold change vs veh, CCT5 / RFU, WDR92 / Fold change vs veh, WDR92 / RFU, CUX1 / Fold change vs veh, CUX1 / RFU, TTC7A / Fold change vs veh, TTC7A / RFU, TMEM135 / Fold change vs veh, TMEM135 / RFU, DEPTOR / Fold change vs veh, DEPTOR / RFU, CPM / Fold change vs veh, CPM / RFU, DNAJB6 / Fold change vs veh, DNAJB6 / RFU, CACNA2D3 / Fold change vs veh, CACNA2D3 / RFU, DTX4 / Fold change vs veh, DTX4 / RFU, TFCP2 / Fold change vs veh, TFCP2 / RFU, GMCL1 /// GMCL1P1 / Fold change vs veh, GMCL1 /// GMCL1P1 / RFU, AEBP2 / Fold change vs veh, AEBP2 / RFU, SNHG1 /// SNORD22 /// SNORD25 /// SNORD26 /// SNORD27 /// SNORD28 /// SNORD29 /// SNORD31 / Fold change vs veh, SNHG1 /// SNORD22 /// SNORD25 /// SNORD26 /// SNORD27 /// SNORD28 /// SNORD29 /// SNORD31 / Fold change (Aza/veh), C12orf56 (ProbeSet 11735607_a_at) / Fold change (ACY-1035/veh), C12orf56 (ProbeSet 11735607_a_at) / Fold change (Aza/veh), FGFR1OP (ProbeSet 11751329_s_at) / Fold change (ACY-1035/veh), FGFR1OP (ProbeSet 11751329_s_at) / Fold change (Aza/veh), VPS36 (ProbeSet 11739960_a_at) / Fold change (ACY-1035/veh), VPS36 (ProbeSet 11739960_a_at) / RFU SYPL1 (11715823_x_at) / Fold change /veh SYPL1 (11715823_x_at) / RFU IGFBP7 (11715501_s_at) / Fold change /veh IGFBP7 (11715501_s_at) / RFU REEP3 (11722064_at) / Fold change /veh REEP3 (11722064_at) / RFU IGLL1 (11728026_x_at) / Fold change /veh IGLL1 (11728026_x_at): dose or concentration left out as unconfirmed
Settings: ProbeSet 11743929_at; LIST B

SMILES: Nc1ncn([C@@H]2O[C@H](CO)[C@@H](O)[C@H]2O)c(=O)n1 [azacitidine]
- RFU, UHRF1BP1L: 257.64 RFU
